# Laboratory results: patent US20240252673A1, “ANTI-TISSUE FACTOR ANTIBODY-DRUG CONJUGATES AND THEIR USE IN THE TREATMENT OF CANCER” (priority 2017, published 2024)
# Where a SMILES comes first, the peptide text is derived from it. [ ]: non-standard residue; d: D form. The star is where a group is joined. Dolaproine = CO[C@@H]([C@@H]1CCCN1)[C@@H](C)C(=O)O; Dil = CC[C@H](C)[C@H](NC)[C@@H](CC(=O)O)OC; X1 = C[C@@H](N*)[C@@H](O)c1ccccc1; NMeV = CN[C@H](C(=O)O)C(C)C
# Test: Phase I/II dose-escalation study: plasma pharmacokinetics
# Format: in vivo, human
# Conditions: after tisotumab vedotin, cycle 1 and cycle 2, all dose cohorts (FIG. 4)
# Experimental: A first-in-human phase I/II dose-escalating study following a 3+3 dose-escalation design was conducted in order to test the safety of tisotumab vedotin in 27 subjects with locally advanced and/or metastatic cancer of various types including cervical cancer (FIG. 2). Tisotumab vedotin was administered by intravenous infusion at doses ranging from 0.3 mg/kg to 2.2 mg/kg on day 1 of a 21-day cycle for four cycles (i.e., each treatment cycle was 3 weeks). Patients with stable disease (SD) or better at the end of four cycles had the option to continue treatment with tisotumab vedotin for eight additional cycles (FIG. 2). Tumor evaluations were performed by CT scans every six weeks. In order to qualify for SD, results of the CT scan scheduled for week six needed to be SD or better. Two CT scans were performed outside the per-protocol defined window.
# A primary objective of the study was to assess the safety and tolerability in a mixed population of patients with specified solid tumors. Adverse event (AE) severity was graded according to Common Terminology Criteria for Adverse Events (CTCAE) version 4.03. Secondary objectives of the study included determining the pharmacokinetic (PK) profile of tisotumab vedotin and preliminary evaluation of anti-tumor activity as assessed according to Response Evaluation Criteria in Solid Tumors [RECIST] version 1.1. Dose-limiting toxicities (DLTs) were determined during the first cycle and were defined as grade≥3 events possibly related to tisotumab vedotin. […] Tumor biopsies were required at baseline for TF expression which was assessed by immunohistochemistry utilizing tisotumab. TF staining intensity was determined using the H-scoring system.
# The geometric means (% CV) of the time to reach Cmax (Tmax)(hr), maximum concentration (Cmax)(ng/mL), and area under the concentration time curve (AUC)0-t (hr*ng/mL) was measured for the pharmacokinetics (PK) portion of the study (Table 3). Low levels of unconjugated MMAE were measured in systemic circulation (FIG. 4).
smiles,measurement,value
"CC[C@H](C)[C@@H]([C@@H](CC(=O)N1CCC[C@H]1[C@H](OC)[C@@H](C)C(=O)N[C@H](C)[C@@H](O)c1ccccc1)OC)N(C)C(=O)[C@@H](NC(=O)[C@@H](NC)C(C)C)C(C)C [MMAE, monomethyl auristatin E] (H-[NMeV]V[Dil][Dolaproine]-X1)",unconjugated MMAE in systemic circulation,Low levels
